Source: US11912693B2, “Compounds for modulating S1P1 activity and methods of using the same” (TREVENA, INC., priority 2017, dated 2024)

Legend:
[1] = target: T1, human sphingosine-1-phosphate receptor 1 (S1P1) (Homo sapiens (Human), UniProt P21453); assay: β-Arrestin2 recruitment assay (PathHunter), S1P1 CHO-K1 cells; format: cell-based; details: for hS1P1 B-arrestin2 pEC50: β-arrestin2 recruitment, S1P1 CHO-K1 cells; for Emax: CHO-K1, efficacy (SPAN) normalized to fingolimod, read-out: hS1P1 B-arrestin2 SPAN
Outline: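 Enzyme-fragment complementation read-out: agonist-driven β-arrestin2 binding to ProLink-tagged human S1P1 in stable CHO-K1 cells restores β-galactosidase, measured 1 h at room temperature after a 60 min 37° C. compound incubation. Potency as pEC50, efficacy relative to fingolimod (SPAN).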
Target sequence in this assay (P21453 whole entry, looked up, the tested form may be a part): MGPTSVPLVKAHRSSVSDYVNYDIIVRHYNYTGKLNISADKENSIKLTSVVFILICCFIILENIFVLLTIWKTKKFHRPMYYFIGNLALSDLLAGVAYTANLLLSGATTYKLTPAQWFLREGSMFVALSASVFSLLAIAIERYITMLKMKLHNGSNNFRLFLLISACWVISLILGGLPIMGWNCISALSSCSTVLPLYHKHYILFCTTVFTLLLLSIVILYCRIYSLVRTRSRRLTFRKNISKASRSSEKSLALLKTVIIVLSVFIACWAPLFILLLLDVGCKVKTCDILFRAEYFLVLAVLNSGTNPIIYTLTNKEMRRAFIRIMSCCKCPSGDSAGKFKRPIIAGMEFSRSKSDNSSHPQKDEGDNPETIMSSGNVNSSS
Target sequence in this assay (P32121 whole entry partner, looked up, the tested form may be a part): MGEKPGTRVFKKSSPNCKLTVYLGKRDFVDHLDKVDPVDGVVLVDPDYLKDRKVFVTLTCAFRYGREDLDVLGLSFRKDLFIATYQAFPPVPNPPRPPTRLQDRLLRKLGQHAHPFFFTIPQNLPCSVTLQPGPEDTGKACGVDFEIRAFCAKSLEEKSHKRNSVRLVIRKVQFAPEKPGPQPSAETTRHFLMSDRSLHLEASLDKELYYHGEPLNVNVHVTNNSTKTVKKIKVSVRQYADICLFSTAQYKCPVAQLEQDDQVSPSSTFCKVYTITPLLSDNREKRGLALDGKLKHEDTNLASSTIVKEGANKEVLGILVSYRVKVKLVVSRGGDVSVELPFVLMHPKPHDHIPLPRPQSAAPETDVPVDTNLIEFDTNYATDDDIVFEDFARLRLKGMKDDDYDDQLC

[2] = test system: paclitaxel induced peripheral neuropathy; assay: Reversal of allodynia induced by paclitaxel in mice (s.c. or p.o., von Frey frequency method); format: in vivo, c57bl/6 mice; details: Mus musculus; for inhibition in vivo at 1 mg/kg: sc, 0.5 h, 1 mg/kg s.c., tested 30 min after dosing, read-out: Screen @ 1 mg/kg sc (% MPE); for inhibition in vivo at 3 mg/kg: po, 1 h, 3 mg/kg p.o., tested 60 min after dosing, read-out: Screen @ 3 mg/kg po (% MPE)
Protocol: Compounds were tested for efficacy in mouse models of chemotherapy induced peripheral neuropathy. […] For these studies […]/6 mice are habituated to the test environment and baseline measurements of pain sensitivity are assessed. To determine mechanical responses, the threshold for responses to punctate mechanical stimuli (mechanical hyperalgesia) was tested according to the frequency method. In brief, the plantar surface of the animal hindpaw was stimulated with a single von Frey monofilament (0.4 g) for approximately 1-2 seconds. If there was a withdrawal response, it was recorded as a positive response. A response was defined as a lifting or shaking of the paw upon stimulation. This was repeated ten times for each mouse. The final measurement for each mouse is the % non-response to stimulation for the ten trials. The % non-response to stimulation is converted to a % MPE. For paclitaxel induced peripheral neuropathy, a series of injections of PAC (6 mg/kg, i.p.) on days 1, 3, 5 and 7 is used to induce peripheral neuropathy. After approximately 14 days from the initiation of PAC injections, animals are re-assessed for mechanical sensitivity. […] On test day animals are dosed with compounds either subcutaneously or orally and tested for mechanical response by the frequency method either 30 min (s.c.) or 60 min (p.o.) after drug administration. Data is presented as a % MPE. For oxaliplatin induced peripheral neuropathy, a series of injections of OXA (4 mg/kg, i.p.) on days 1-5 is used to induce peripheral neuropathy. After approximately 14 days from the initiation of PAC injections, animals are re-assessed for mechanical sensitivity. […] On test day animals are dosed with compounds subcutaneously and tested for mechanical response by the frequency method 30 min after drug administration. Data is presented as a % MPE. One or more of the compounds show reversal of chemotherapeutic induced peripheral neuropathy.

[3] = target: T1, human sphingosine-1-phosphate receptor 1 (S1P1); assay: Inhibition of cAMP production (HTRF cAMP HiRange), S1P1 CHO-K1 cells; format: cell-based; details: for hS1P1 cAMP pEC50: inhibition of cAMP production, S1P1 CHO-K1 cells; for Emax: CHO-K1, efficacy (SPAN) normalized to fingolimod, read-out: hS1P1 cAMP SPAN
Outline: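 CHO-K1 cells stably co-expressing human S1P1 (C-terminal Prolink tag) and EA-β-arrestin2 were grown in AssayComplete Media 6 at 37° C. and 5% CO2, plated, and incubated overnight. Agonist-driven inhibition of intracellular cAMP was read by TR-FRET with the HTRF cAMP HiRange kit on a PheraStar reader. Potency is pEC50, and efficacy (SPAN) is normalized to fingolimod.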
Target sequence in this assay (P21453 whole entry, looked up, the tested form may be a part): as the sequence (P21453 whole entry, looked up, the tested form may be a part) above

Row | SMILES | hS1P1 B-arrestin2 pEC50 [1] | inhibition in vivo at 1 mg/kg [2] [%] | hS1P1 cAMP pEC50 [3] | Emax [1] [%] | Emax [3] [%] | inhibition in vivo at 3 mg/kg [2] [%]
1 | CC(C)n1nnc2cc(-c3noc(-c4ccccc4C(F)(F)F)n3)ccc21 [Compound 33, 3-(1-isopropylbenzotriazol-5-yl)-5-[2-(trifluoromethyl)phenyl]-1,2,4-oxadiazole] | >5 | < 50 | >6.5 | – | – | –
2 | CCC1(CC)CC(=O)c2cc(-c3nc(-c4ccc(S(N)(=O)=O)cc4)no3)ccc2O1 [Compound 106, 4-(5-(2,2-diethyl-4-oxochroman-6-yl)-1,2,4-oxadiazol-3-yl)benzenesulfonamide] | >5 | < 50 | >6.5 | > 75 | > 75 | –
3 | CC(C)Nc1ccc(-c2nc(-c3ccc4c(c3)CC(=O)N4)no2)cc1C#N [Compound 107, 2-(isopropylamino)-5-(3-(2-oxoindolin-5-yl)-1,2,4-oxadiazol-5-yl)benzonitrile] | >5 | < 50 | >6.5 | > 75 | > 75 | –
4 | CCC1(CC)CC(=O)c2cc(-c3nc(-c4ccc(C(N)=O)cc4)no3)ccc2O1 [Compound 179, 4-(5-(2,2-diethyl-4-oxochroman-6-yl)-1,2,4-oxadiazol-3-yl)benzamide] | >5 | > 50 | >6.5 | > 75 | > 75 | > 50
5 | N#Cc1cc(-c2nc(-c3ccc4c(c3)CC(=O)N4)no2)ccc1NCC1CC1 [Compound 210, 2-((cyclopropylmethyl)amino)-5-(3-(2-oxoindolin-5-yl)-1,2,4-oxadiazol-5-yl)benzonitrile] | >5 | < 50 | >6.5 | > 75 | > 75 | –
6 | C=CCNc1ccc(-c2nc(-c3ccc4c(c3)CC(=O)N4)no2)cc1C#N [Compound 224, 2-(allylamino)-5-(3-(2-oxoindolin-5-yl)-1,2,4-oxadiazol-5-yl)benzonitrile] | >5 | > 50 | >6.5 | > 75 | > 75 | –
7 | CCC1(CC)CC(=O)c2cc(-c3nc(-c4ccc5c(c4)nnn5C(C)C)no3)ccc2O1 [Compound 305, 2,2-diethyl-6-(3-(1-isopropyl-1H-benzo[d][1,2,3]triazol-5-yl)-1,2,4-oxadiazol-5-yl)chroman-4-one] | <5 | > 50 | <6.5 | – | – | –
8 | Cc1ccccc1-c1noc(-c2ccc3c(c2)nnn3C2CCC2)n1 [Compound 306, 1-cyclobutyl-5-[3-(2-methylphenyl)-1,2,4-oxadiazol-5-yl]-1H-1,2,3-benzotriazole] | >5 | < 50 | >6.5 | – | – | –
9 | CC(F)CNc1ccc(-c2nc(-c3ccc4c(c3)CCC(=O)N4)no2)cc1C#N (centres unmarked) [Compound 348, 2-[(2-fluoropropyl)amino]-5-[3-(2-oxo-1,2,3,4-tetrahydroquinolin-6-yl)-1,2,4-oxadiazol-5-yl]benzonitrile] | >5 | – | >6.5 | > 75 | > 75 | > 50
10 | N#Cc1cc(-c2nnc(-c3ccc4[nH]ncc4c3)o2)ccc1NCC(F)F [Compound 354, 2-[(2,2-difluoroethyl)amino]-5-[5-(1H-indazol-5-yl)-1,3,4-oxadiazol-2-yl]benzonitrile] | >5 | – | >6.5 | > 75 | > 75 | > 50
11 | N#Cc1cc(-c2nnc(-c3ccc4[nH]cnc4c3)o2)ccc1NCCF [Compound 358, 5-[5-(1H-1,3-benzodiazol-5-yl)-1,3,4-oxadiazol-2-yl]-2-[(2-fluoroethyl)amino]benzonitrile] | >5 | – | >6.5 | > 75 | > 75 | > 50
12 | N#Cc1cc(-c2nnc(-c3ccc4[nH]cnc4c3)o2)ccc1NCC(F)F [Compound 359, 5-[5-(1H-1,3-benzodiazol-5-yl)-1,3,4-oxadiazol-2-yl]-2-[(2,2-difluoroethyl)amino]benzonitrile] | >5 | – | >6.5 | > 75 | > 75 | > 50
13 | CCC1(CC)CC(=O)c2cc(-c3nc(-c4ccc5c(c4)CCC(=O)N5)no3)ccc2O1 [Compound 415, 6-(5-(2,2-diethyl-4-oxochroman-6-yl)-1,2,4-oxadiazol-3-yl)-3,4-dihydroquinolin-2(1H)-one] | <5 | – | >6.5 | – | – | < 50
14 | CC(C)Nc1ccc(-c2nc(-c3ccc4c(c3)NC(=O)CC4)no2)cc1C#N [Compound 435, 2-(isopropylamino)-5-(3-(2-oxo-1,2,3,4-tetrahydroquinolin-7-yl)-1,2,4-oxadiazol-5-yl)benzonitrile] | >5 | – | >6.5 | – | – | > 50
15 | CC(C)Nc1ccc(-c2nc(-c3ccc4c(c3)CCNC4=O)no2)cc1C#N [Compound 442, 2-(isopropylamino)-5-(3-(1-oxo-1,2,3,4-tetrahydroisoquinolin-6-yl)-1,2,4-oxadiazol-5-yl)benzonitrile] | >5 | – | >6.5 | – | – | > 50
16 | N#Cc1cc(-c2nc(-c3ccc4c(c3)NC(=O)CC4)no2)ccc1NCC1CC1 [Compound 471, 2-((cyclopropylmethyl)amino)-5-(3-(2-oxo-1,2,3,4-tetrahydroquinolin-7-yl)-1,2,4-oxadiazol-5-yl)benzonitrile] | >5 | – | >6.5 | – | – | < 50
17 | N#Cc1cc(-c2nc(-c3ccc4c(c3)CCC(=O)N4)no2)ccc1NCC(F)(F)F [Compound 472, 5-[3-(2-oxo-1,2,3,4-tetrahydroquinolin-6-yl)-1,2,4-oxadiazol-5-yl]-2-[(2,2,2-trifluoroethyl)amino]benzonitrile] | >5 | – | >6.5 | – | – | > 50
18 | CCC1(CC)CC(=O)c2cc(-c3nc(-c4cncc(N)c4)no3)ccc2O1 [Compound 502, 6-(3-(5-aminopyridin-3-yl)-1,2,4-oxadiazol-5-yl)-2,2-diethylchroman-4-one] | >5 | – | >6.5 | – | – | > 50
19 | CCC1(CC)CC(=O)c2cc(-c3nc(-c4ccnc(N)c4)no3)ccc2O1 [Compound 513, 6-(3-(2-aminopyridin-4-yl)-1,2,4-oxadiazol-5-yl)-2,2-diethylchroman-4-one] | >5 | – | >6.5 | – | – | < 50
20 | CC(C)Nc1ccc(-c2nc(-c3ccc4c(c3)C(=O)NCC4)no2)cc1C#N [Compound 514, 2-(isopropylamino)-5-(3-(1-oxo-1,2,3,4-tetrahydroisoquinolin-7-yl)-1,2,4-oxadiazol-5-yl)benzonitrile] | >5 | – | >6.5 | – | – | > 50
21 | Cc1cn(C)nc1-c1noc(-c2ccc3c(c2)nnn3C(C)C)n1 [Compound 519, 5-[3-(1,4-dimethyl-1H-pyrazol-3-yl)-1,2,4-oxadiazol-5-yl]-1-(propan-2-yl)-1H-1,2,3-benzotriazole] | >5 | – | >6.5 | > 75 | > 75 | < 50
22 | CC(C)Nc1ccc(-c2nnc(-c3ccc4cnccc4c3)o2)cc1C#N [Compound 735, 5-[5-(isoquinolin-6-yl)-1,3,4-oxadiazol-2-yl]-2-[(propan-2-yl)amino]benzonitrile] | – | – | – | – | – | < 50
23 | CC(C)Nc1ccc(-c2nnc(-c3ccc4ncccc4c3)o2)cc1C#N [Compound 736, 2-[(propan-2-yl)amino]-5-[5-(quinolin-6-yl)-1,3,4-oxadiazol-2-yl]benzonitrile] | – | – | – | – | – | > 50
